Experimental data as given in patent publication US20250051285A1, “C[…] FORM OF EP4 ANTAGONIST” (Eisai R&D Management Co., Ltd., priority 2021, published 2025).

Experiments:
Format in all cases: physicochemical
[1] = Dissociation constant (pKa) by capillary electrophoresis; details: capillary electrophoresis (CE), buffer solution I = 0.05, 25° C.
[2] = Solubility in organic solvents and water
[3] = Solubility in aqueous solutions
[4] = Hygroscopicity by dynamic vapor sorption (DVS)
Method: Hygroscopicity of crystalline free acid form of Compound 1 was measured using the dynamic vapor sorption (DVS) method.

SMILES: C[C@H](NC(=O)c1c(C(F)F)nn(C)c1Oc1cccc(C(F)(F)F)c1)c1ccc(C(=O)O)cc1 [Compound 1, (S)-4-(1-(3-(difluoromethyl)-1-methyl-5-(3-(trifluoromethyl)phenoxy)-1H-pyrazole-4-carboxamido)ethyl)benzoic acid]
- pKa [1]: 4.1
- Solubility in 2-propanol ([2]; 2-propanol): ethanol and ethyl acetate, slightly soluble in 2-
- Solubility in acetonitrile ([2]; acetonitrile): soluble
- Solubility in ethanol ([2]; ethanol): sparingly soluble
- Solubility in ethyl acetate ([2]; ethyl acetate): sparingly soluble
- Solubility in heptane ([2]; heptane): practically insoluble in water and heptane.
- Solubility in water ([2]; water): practically insoluble in water and heptane.
- Solubility in 0.1N HCl ([3]; 0.1N HCl): 0.3, pH 9) and practically insoluble in 0.1N HCl and
- Solubility in Britton-Robinson buffer pH 9 ([3]; Britton-Robinson buffer, I = 0.3, pH 9): Very slightly soluble in Britton-Robinson buffer (I =
- Hygroscopicity ([4]; DVS adsorption and desorption isotherm): Non-hygroscopic
- Weight change in DVS ([4]; relative humidity 5% to 95% RH at 25° C.): No significant weight change
